These results are taken from patent publication US7470703B1 (priority 2004, dated 2008).

As usually defined, the Ki is the equilibrium dissociation constant of an inhibitor or competing ligand from its target. A higher Ki goes with weaker binding. One may read the inhibition as the relative decrease from the control value, in per cent.

The subject of assay [1] is mouse cremaster muscle. The assay is described as follows: In vivo mouse cremaster muscle vessel diameter. The note with it: intravenous 2 mg/kg, 37° C., n=6. From the text: It is expected that this model also adequately represent the vasodilation in humans.
Assay [2] addresses T1, human α2C-AR (Homo sapiens, UniProt P18825).
T1 sequence (P18825 1-462): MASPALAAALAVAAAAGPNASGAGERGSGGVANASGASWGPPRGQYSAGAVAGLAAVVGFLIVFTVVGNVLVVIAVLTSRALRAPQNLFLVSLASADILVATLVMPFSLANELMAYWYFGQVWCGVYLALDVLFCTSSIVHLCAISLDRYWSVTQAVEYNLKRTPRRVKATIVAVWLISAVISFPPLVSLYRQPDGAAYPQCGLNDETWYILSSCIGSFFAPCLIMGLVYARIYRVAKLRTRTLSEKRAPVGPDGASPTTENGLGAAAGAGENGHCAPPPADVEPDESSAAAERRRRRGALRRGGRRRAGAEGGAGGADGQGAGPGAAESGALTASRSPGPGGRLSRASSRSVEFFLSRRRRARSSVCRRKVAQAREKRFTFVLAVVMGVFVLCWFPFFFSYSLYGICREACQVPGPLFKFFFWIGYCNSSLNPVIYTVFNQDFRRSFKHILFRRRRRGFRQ
The assay is described as follows: Radioligand binding ([3H]rauwolscine) in CHO cells expressing human α2C-AR. Also noted: expressed in transfected cells. The note with it: for binding affinity for the α2C-AR greater than on the α1-AR subtypes: comparing Tables 1 and 3; for selectivity in binding to the α2C- versus the α2A-AR / selectivity in binding to the α2C- versus the α2B-AR: from binding affinities. Here is the method:
(§1) Radioligand binding studies were conducted in CHO cells expressing homogeneous populations of α2A-, α2B- and α2C-ARs. Similar studies were performed in HEK293 cells expressing homogeneous populations of α1A-, α1B- and α1D-ARs. Briefly, CHO cells were harvested using Ham's F-12 media following trypsinization while HEK293 cells were detached by simple scraping. The cell suspension was centrifuged and the pellet re-suspended in Tris-EDTA buffer, pH 7.4. […] The assays were conducted in a final volume of 2 ml. Non-specific binding was determined in the presence of 10 μM phentolamine. The percentage of specific binding was determined by dividing the difference between the total bound (dpm) and nonspecific bound (dpm) by the total bound (dpm). […] Inhibition of specific binding by the competitors was determined using varying concentrations of the analogs. Incubations were terminated at 60 minutes by rapid filtration over Whatman GF/C glass fiber filters (Maidstone, UK) using a cell harvester (Brandel Inc., Gaithersburg, Md.). The filter discs were washed three times with Tris-EDTA buffer, pH 7.4, at 4° C. The radioactivity was quantified by using a Packard TRI-CARB 2900 TR Liquid Scintillation Analyzer (Packard Instrument Company, CT, USA) and data analyzed using GraphPad Prism (GraphPad Software, San Diego, Calif., USA).
(§2) Scatchard analyses were carried out using varying concentrations of selected radioligands to determine their affinities (KD) and maximal binding characteristics (Bmax). […] The total and nonspecific binding for each concentration was determined in triplicate. The specific binding, at each concentration of the radioligand, was established and plotted as bound ligand versus bound/free ligand and the corresponding KD and Bmax values calculated on each human α-AR subtype. Data are expressed as the mean±S.E.M. of n=6-9 experiments.
(§3) Individual pKi values are used to determine whether there are significant differences among means of the analogs on the three α2-AR subtypes. […] The final data are presented as mean±SEM of n=4 or more experiments.
(§4) Ki and IC50 values were calculated as described above.

For assay [3], the system named is mouse cremaster muscle. The assay is described as follows: Ex vivo mouse cremaster muscle vasoconstriction model. To be noted: for EC50: Mus musculus, read-out: EC50 (vasoconstriction concentration-response).
The target of assay [4] is T2, human α2A-AR (Homo sapiens, UniProt P08913).
T2 sequence (P08913 1-465): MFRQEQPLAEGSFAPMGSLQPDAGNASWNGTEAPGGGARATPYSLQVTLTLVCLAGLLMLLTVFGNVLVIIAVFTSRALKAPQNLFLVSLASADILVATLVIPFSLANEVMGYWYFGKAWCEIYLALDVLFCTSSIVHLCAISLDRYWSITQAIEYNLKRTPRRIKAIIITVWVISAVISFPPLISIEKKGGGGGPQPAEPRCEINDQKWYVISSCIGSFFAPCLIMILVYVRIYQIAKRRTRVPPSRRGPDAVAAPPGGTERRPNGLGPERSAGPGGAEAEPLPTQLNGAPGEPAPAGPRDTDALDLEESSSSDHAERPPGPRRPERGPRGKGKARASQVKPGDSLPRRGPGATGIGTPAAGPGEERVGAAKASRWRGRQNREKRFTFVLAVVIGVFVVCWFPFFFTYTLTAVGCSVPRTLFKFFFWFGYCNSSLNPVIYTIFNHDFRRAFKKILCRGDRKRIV
The experiment in a line: Radioligand binding ([3H]rauwolscine) in CHO cells expressing human α2A-AR. Also noted: expressed in transfected cells. Here is the method: as §1, §2, §3, §4

In another assay the target is T3, human α2B-AR (Homo sapiens, UniProt P18089).
T3 construct: expressed in transfected cells
T3 sequence (P18089 1-450): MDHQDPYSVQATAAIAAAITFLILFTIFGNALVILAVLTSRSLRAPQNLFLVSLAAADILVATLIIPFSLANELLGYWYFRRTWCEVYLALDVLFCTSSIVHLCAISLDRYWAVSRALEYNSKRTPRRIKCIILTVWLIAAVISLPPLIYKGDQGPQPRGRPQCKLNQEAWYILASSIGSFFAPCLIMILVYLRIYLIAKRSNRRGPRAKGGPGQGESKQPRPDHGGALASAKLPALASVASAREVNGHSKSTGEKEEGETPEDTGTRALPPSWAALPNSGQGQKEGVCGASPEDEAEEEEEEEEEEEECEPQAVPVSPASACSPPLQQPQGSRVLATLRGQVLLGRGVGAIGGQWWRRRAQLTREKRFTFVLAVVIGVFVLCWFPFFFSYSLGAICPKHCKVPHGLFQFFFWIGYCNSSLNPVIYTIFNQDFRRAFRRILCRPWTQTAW
The experiment in a line: Radioligand binding ([3H]rauwolscine) in CHO cells expressing human α2B-AR. As to the method: as §1, §2, §3, §4

The target of assay [5] is T1, human α2C-AR. Also noted: expressed in transfected cells. The note with it: literature; cited from earlier work.
Assay [6] concerns the target T1, human α2C-AR. The experiment in a line: cell-based. As to the method:
(§5) The reporter gene assays were conducted in CHO cells expressing the human α2A- and α2C-AR subtype. The cells were grown to confluence, upon which they were isolated and electroporated in the presence of the plasmid. […] Cells were transiently transfected with the 6 CRE-LUC plasmid (5 μg/100 μl of cell suspension) using electroporation at 150 V, 70 ms, single pulse. Transfected cells were plated into a 96-well microplate at a density of approximately 50,000 cells per well and allowed to grow for 20 hours.
(§6) The assays with both α2A- and α2C-ARs were conducted using the non-subtype selective α2-AR agonist, medetomidine, to block the cAMP changes induced by the adenyl cyclase activator, forskolin. […] Basal values (solvent control) were subtracted from the forskolin values and the resulting forskolin response was used as 100%. Similarly, basal values were subtracted from all other values obtained with ligands, and the data expressed as a percentage luciferase response relative to that of forskolin alone.
(§7) The agonist ligand, medetomidine, was added directly to the medium 20 minutes prior to the addition of forskolin and then allowed to incubate for 4 hours. […] These compounds were added 20 minutes prior to the addition of medetomidine.

Assay [7] addresses T2, human α2A-AR. The assay is described as follows: cell-based. As to the method: as §5, §6, §7
The mark [8] stands for this setting: CHO cells, [3H]rauwolscine competition.
[9] abbreviates: CHO, read-out: inhibition of forskolin-induced cAMP response (luciferase).

Where two headings read alike, the source gives them in different places. Marks after values point to notes of the source that are not given here.

For `COC(=O)[C@@H]1[C@H]2C[C@H]3c4[nH]c5ccccc5c4CCN3C[C@@H]2CC[C@@H]1O` [Compound 1, Yohimbine], the “increase in vessel diameter” value in the assay on mouse cremaster muscle [1] amounted to 22.14±1.08%. Also, the “binding affinity for the α2C-AR greater than on the α1-AR subtypes” value at human α2C-AR [2] is given as “at least 224 fold”. The “reversal of medetomidine induced vasoconstriction” value with mouse cremaster muscle [3] (30, 100, and 300 nM) is on record as “reversed”.
In the case of `O=C(O)[C@@H]1[C@H]2C[C@H]3c4[nH]c5ccccc5c4CCN3C[C@@H]2CC[C@@H]1O` [Compound 2, Yohimbinic acid], the “decrease in binding potency at the α2A-AR as compared to yohimbine” value on human α2A-AR [4] turned out to be 345 fold. This compound also yielded a Ki on human α2A-AR [4] (CHO cells) of 616 nM. On human α2C-AR [2], the “decrease in binding potency at the α2C-AR as compared to yohimbine” value was determined as 20 fold, the “selectivity in binding to the α2C- versus the α2A-AR” value is listed as “around 32 fold” and the “selectivity in binding to the α2C- versus the α2B-AR” value is listed as “equipotent”. The same compound registered a Ki at human α2C-AR [2] (CHO cells) of 19.4 nM. In addition, on human α2B-AR, the “binding at the α2B-AR versus the α2A-AR” value came out at 46 fold and the “decrease in binding potency at the α2B-AR as compared to yohimbine” value was 2 fold. In addition, the Ki on human α2B-AR (CHO cells) was found to be 13.4 nM.
Take `O=C(NCCCNC(=O)C1C(O)CCC2CN3CCc4c([nH]c5ccccc45)C3CC21)C1C(O)CCC2CN3CCc4c([nH]c5ccccc45)C3CC21` (stereo not drawn) [Compound 3]: at human α2A-AR [4] (CHO cells), affinity was put at a Ki of 158 nM. In addition, at human α2A-AR [4] (setting [8]), the “α2A pKi ± SEM” value was 6.80 ± 0.02^a. For the same compound, on human α2C-AR [2] (CHO cells), affinity was put at a Ki of 8.91 nM. The “α2C pKi ± SEM” value on human α2C-AR [2] (setting [8]) is 8.05 ± 0.04^b. Also, at human α2C-AR [2], the “selectivity in binding to the α2C- versus the α2A-AR” value is recorded as 18 fold and the “selectivity in binding to the α2C- versus the α2B-AR” value was determined as 68 fold. Moreover, at human α2C-AR [5], the “selectivity in binding to the α2C- versus α2A-AR (Lalchandani et al. 2002)” value was 32 fold and the “selectivity in binding to the α2C- versus α2B-AR (Lalchandani et al. 2002)” value is on record as 355 fold. Also, at human α2B-AR (CHO cells), affinity was put at a Ki of 602 nM. Further, the “α2B pKi ± SEM” value on human α2B-AR (setting [8]) is 6.22 ± 0.03.
In the case of `Cc1cccc(C(C)c2cnc[nH]2)c1C` (stereo not drawn) [medetomidine], the inhibition at 1 µM on human α2C-AR [6] (setting [9]) worked out at 70%. Besides, the “increase in cAMP levels, alone (in the absence of forskolin)” value is given as “did not show an increase in cAMP levels” on human α2C-AR [6] (α2C-AR, 1 μM) and 17% on human α2A-AR [7] (α2A-AR, 10 μM). For the same compound, at human α2A-AR [7] (setting [9]), the inhibition at 0.01 µM was 56%. In addition, the “shift of the curve (to the left) at the lower temperature” value with mouse cremaster muscle [3] (25° C. vs 37° C.) was 10 fold. Besides, the EC50 in the assay with mouse cremaster muscle [3] (25° C.) was found to be 2.15 nM; in the assay with mouse cremaster muscle [3] (37° C.), 20.4 nM.
For the compound [^3H]rauwolscine [[^3H]rauwolsine], at human α2A-AR [4] (saturation binding, CHO cells), the “Bmax α2A” value is listed as 8.20±0.71 pmoles/mg protein. Further, on human α2C-AR [2] (saturation binding, CHO cells), the “Bmax α2C” value stood at 1.20±0.13 pmoles/mg protein.
For “yohimbine benzyl carbamate propyl amine [Compound 7]”, the “mean percent inhibition (of the medetomidine response)” value at human α2A-AR [7] (α2A-AR, test compound 0.1 μM, medetomidine 0.01 μM, forskolin 5 μM) is 54%. The “binding affinity for the α2C-AR greater than on the α1-AR subtypes” value at human α2C-AR [2] is recorded as at least 562 fold.
